{"source": "patent US20060194814A1", "about": "“Benzamide compounds” (priority 2003, published 2006)", "key": {"[1]": {"target": "T1, HMG-CoA reductase (Mus musculus, UniProt Q01237)", "T1 construct": "endogenous in cells; host or cells: Y1 mouse adrenal tumor cells", "T1 sequence (Q01237 1-887)": "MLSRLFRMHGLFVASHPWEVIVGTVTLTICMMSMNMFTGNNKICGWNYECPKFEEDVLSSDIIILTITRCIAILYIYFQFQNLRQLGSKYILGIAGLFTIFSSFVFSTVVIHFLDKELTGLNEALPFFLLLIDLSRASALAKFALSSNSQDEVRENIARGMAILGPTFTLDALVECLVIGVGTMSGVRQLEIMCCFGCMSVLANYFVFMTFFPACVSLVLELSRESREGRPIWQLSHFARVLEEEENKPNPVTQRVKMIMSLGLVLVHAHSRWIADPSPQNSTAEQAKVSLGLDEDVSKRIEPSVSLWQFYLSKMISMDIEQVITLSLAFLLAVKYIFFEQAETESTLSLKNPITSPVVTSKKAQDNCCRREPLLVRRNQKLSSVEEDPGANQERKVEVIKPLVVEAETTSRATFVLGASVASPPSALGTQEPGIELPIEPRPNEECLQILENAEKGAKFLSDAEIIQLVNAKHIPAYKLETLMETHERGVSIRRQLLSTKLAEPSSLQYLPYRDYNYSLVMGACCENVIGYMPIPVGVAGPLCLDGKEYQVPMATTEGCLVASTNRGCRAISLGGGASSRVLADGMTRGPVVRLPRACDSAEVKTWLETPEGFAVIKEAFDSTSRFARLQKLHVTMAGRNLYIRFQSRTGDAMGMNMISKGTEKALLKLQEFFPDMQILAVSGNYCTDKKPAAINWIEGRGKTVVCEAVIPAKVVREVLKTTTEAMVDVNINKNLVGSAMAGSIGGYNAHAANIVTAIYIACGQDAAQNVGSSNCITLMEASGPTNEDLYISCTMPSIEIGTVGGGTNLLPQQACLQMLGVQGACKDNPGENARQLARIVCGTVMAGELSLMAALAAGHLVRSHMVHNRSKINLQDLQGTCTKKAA", "experiment": "Direct effect on HMG-CoA reductase activity in sonicated Y1 cell homogenates", "type": "biochemical", "settings": "sonicated Y1 cells", "method": "Cells were washed twice with ice-cold PBS and incubated with ice-cold assay buffer (0.1M sucrose, 40 mM KH2PO4, 30 mM EDTA, 50 mM KCl, 5 mM DTT, 0.25% (v/v) of Brij 96, at pH 7.4) on ice for 20 minutes. After centrifugation for 3 minutes at 14000 g (4° C.) the supernatants were collected and used for HMG-CoA reductase activity assay. The total 150 l assay mixture contained 100-200 g protein and the NADPH-generating system (2.5 mM NADP, 20 mM glucose 6-phosphate and 20 U/ml glucose 6-phosphate dehydrogenase). The reaction was started by adding substrate (^14C-HMG-CoA, 0.1 Ci) and stopped after 45 minutes by adding 10-1 of HCl 6M. ^3H-mevalonolactone was also added to the samples as an extraction recovery marker. After an additional 30 minutes incubation time, to allow complete lactonization of the product, the mixture was centrifuged. The supernatant was applied to Bond-Elut NH2 column and eluted with 1 ml of toluene/acetone (3:1). The eluate was discarded and further 4 ml of toluene/acetone was applied to the column and collected in a scintillation vial for counting ^14C-mevalonate and ^3H-mevalonolactone signals (Berkhout et al., 1990).\nIn separate experiments cells were disrupted by sonication and then treated with procaine. The direct effect of the treatment on HMG-CoA reductase activity in the homogenates was determined as described above."}, "[2]": {"target": "T2, peripheral-type benzodiazepine receptor (PBR) (Mus musculus, UniProt P50637)", "T2 construct": "endogenous in cells; Y1 inferred from context", "experiment": "PBR radioligand binding ([3H]PK 11195) in procaine-treated cells", "settings": "1 μM procaine, 48 hour treatment; radioligand [3H]PK 11195", "method": "Radioligand binding assays were performed as previously described (Papadopoulos et al., 1990, J. Biol. Chem. 265, 3772-3779). In brief, cells were scrapped from culture flasks into PBS, dispersed by trituration, and centrifuged at 1200×g for 5 min. The cells were resuspended in PBS to a final concentration of 10-50 μg protein/100 μl. Saturation binding studies were performed in a final volume of 300 μl in the presence of the radioligand [^3H]PK 11195 (specific activity 83.5 Ci/mmol; NEN Life Science Products) at the indicated concentrations. Nonspecific binding was determined in the presence of 6 μM of the homologous non-radioactive ligand. After 180 min incubation at 4° C., the assays were stopped by filtration through Whatman GF/C filters (Clifton, N.J.) and washed with 10 ml PBS. Bound radioactivity was determined by liquid scintillation counting. Bound [^3H]PK 11195 and [^3H]cholesterol were quantified by liquid scintillation spectrometry. Dissociation constants (Kd), the number of binding sites (Bmax) and Hill coefficients (nH) for PK 11195 and cholesterol were determined by Curve-Fit (Prism version 3.0, GraphPad Software Inc., San Diego, Calif.)."}, "[3]": {"tested_on": "Y1 cells", "experiment": "dbcAMP and mevalonate-supported 20á-hydroxyprogesterone formation in Y1 cells", "type": "cell-based, mouse", "parameters": "dose or concentration left out as unconfirmed", "settings": "procaine", "method": "(§1) Culture media were then changed and cells were stimulated with 1 mM dbcAMP and the treatment for 24 to 48 hours. […] The synthesis of 20 —OH progesterone and progesterone in Y1 and MA-10 cell media respectively were measured by RIA (Brown et al., 1992). H295R human adrenal tumor cells were seeded in 48-well plates at 10^5 cells/well and incubated for 24 hours. […] At the end of the incubation time period, cells were treated with 1 mM dbcAMP for 48 hours. Cortisol levels in the media were determined by radioimmunoassay as previously described (Amri et al., 1996)."}, "[4]": {"tested_on": "Y1 mouse adrenal tumor cells", "experiment": "dbcAMP-induced 20á-hydroxyprogesterone synthesis in Y1 cells", "type": "cell-based", "settings": "Y1 cells", "method": "as §1"}}, "note": "Counter-ions that a name gives are not always drawn."}
{"molecule": "CCN(CC)CCOC(=O)c1ccc(N)cc1", "note": "[SP01, procaine HCl]", "values": [{"measurement": "direct effect on HMG-CoA reductase activity", "setting": "[1]", "result": "No direct effect"}, {"measurement": "HMG-CoA reductase activity", "setting": "[1]; 1 μM procaine", "result": "9.9±0.01", "unit": "pmol/min/mg protein"}, {"measurement": "HMG-CoA reductase activity", "setting": "[1]; 10 μM procaine", "result": "10.3±0.6", "unit": "pmol/min/mg protein"}, {"measurement": "HMG-CoA reductase activity", "setting": "[1]; 100 μM procaine", "result": "10.1±0.1", "unit": "pmol/min/mg protein"}, {"measurement": "Bmax of PBR ligand binding in procaine-treated cells", "setting": "[2]", "result": "29±4", "unit": "pmol/mg protein"}, {"measurement": "effect on dbcAMP and mevalonate-supported 20á-hydroxyprogesterone formation", "setting": "[3]", "result": "did not inhibit"}, {"measurement": "effect on dbcAMP-induced 20á-hydroxyprogesterone production", "setting": "[4]", "result": "decreased in a dose-dependent manner"}, {"measurement": "lowest concentration inhibiting cAMP-induced steroid synthesis", "setting": "[4]", "result": 0.1, "unit": "µM"}, {"measurement": "inhibition of dbcAMP-stimulated steroid formation", "setting": "[4]; procaine at 1 M / 1 iM", "result": 90, "unit": "%"}]}
